Columns and labels:
Format in all cases: cell-based
Rankl [1] = experiment: Rankl transcript levels by RT-PCR in mouse mammary organoids stimulated ex vivo
Protocol: (§1) Next, we stimulated mouse mammary organoids derived from several BalbC females with R5020 or different progestins (Fig 1A). […] No significant change in Rankl and Wnt4 transcript levels was detected during the first 2 h (Appendix Fig S1D). By 6 h of R5020 stimulation, Rankl and Wnt4 transcript levels increased 22.4 and 5.8‐fold over the vehicle‐treated control, respectively.
(§2) Animal experiments were performed in accordance with protocol approved by the Service de la Consommation et des Affaires vétérinaires of Canton de Vaud (VD 1865.3, VD 1865.4). NOD. Cg‐Prkdc^scid Il2rg^tm1Wjl/SzJ mice (Charles River), BalbC, and C57Bl6 breeders were purchased from Jackson Laboratories. Mammary glands were isolated from 18‐ to 35‐week‐old mice, lymph nodes removed, minced with surgical blades, and digested in DMEM/F12, 1% penicillin/streptomycin B with collagenase A 0.25 mg/ml (Roche). […] Fat was removed, and pellet containing organoids washed with phosphate‐buffered saline (PBS), resuspended 5 min in 3 ml red cell blood lysis buffer and washed twice with PBS.
(§3) Human breast microstructures and mouse organoids were homogenized in Trizol (Invitrogen). Aqueous phase containing RNA was chloroform extracted and processed with miRNeasy extraction kit (Qiagen). cDNA was synthesized using random p(dN)6 primers (Roche) and MMLV reverse transcriptase (Invitrogen). SYBR Green PCR Core Reagent System (Qiagen) was used for semi‐quantitative real time (RT‐PCR) using the following primers.

[2] = tested on: human breast tissue microstructures (EpCAM+ cells); experiment: RNA sequencing of EpCAM+ cells from human breast tissue microstructures stimulated ex vivo; conditions: 14–18 h exposure, n = 3
Text: Having ascertained with mammary tissue from inbred mice that androgenic and anti‐androgenic progestins have different effects on the expression of important PR target genes, we set out to assess the transcriptional response to PR signaling in the human breast epithelium. In view of our goal to perform in vivo experiments with the natural ligand progesterone, we compared the effects of progesterone to those of its stable analog R5020 which is commonly used for in vitro experiments on breast epithelial cells. For this, we used an ex vivo approach with human breast tissue similar to the mouse organoid technique used above that maintains hormone responsiveness (Tanos et al, 2013; Sflomos et al, 2015). In brief, 3 fresh mammoplasty tissue from women with follicular phase progesterone levels were cut into 1 mm^3 pieces and aliquoted for digestion with collagenase and concomitant exposure to either vehicle, R5020, or progesterone for 14–18 h. Tissue microstructures that contain epithelial cells, immune cells, and fibroblasts in varying proportions were recovered. To reduce interpatient variation as far as it relates to different ratios of various cell types, at the end of the treatment, the tissue microstructures were dissociated to single cells and enriched for epithelial cells by FACS sorting with antibodies against the epithelial cell surface marker EpCAM (Fig 2A). The EpCAM^+ cells were processed for RNA sequencing. […] Progesterone affected expression levels of 65 genes, whereas R5020 affected 112 genes, including RANKL (adj.P < 0.05) (Appendix Fig S2A). More than 90% of the progesterone‐induced gene expression changes were induced by R5020 (Fig 2C). […] R5020 induced higher‐fold changes as indicated by the estimated slope of the curve being > 1 (P < 0.0001). […]
All experiments conformed to the principles set out in the WMA Declaration of Helsinki and the Department of Health and Human Services Belmont Report. […] Human tissue samples were mechanically and enzymatically dissociated, single cells were prepared, counted, and spin infected using Lenti‐ONE CMV‐GFP(2A)Luc2 WPRE VSV, V621004001, or pR980 Luc2GFP (GEGTECH) at a multiplicity of infection of 1 at 2.500 rpm for 3 h at room temperature in 500 μl of serum‐free medium. […]
(§4) RNAseq libraries were prepared using Truseq Stranded RNA producing single‐end reads of 100 bp and sequenced on Illumina Hiseq 2500 instrument. […]
(§5) Sequencing reads were quality controlled using FastQC (v0.11.8) (Wingett & Andrews, 2018). Mouse raw reads were aligned to the mouse genome (mm9) and human raw reads to the human genome (hg19) using TopHat (v2.0.11) (Kim et al, 2013). […]

Wnt4 [3] = experiment: Wnt4 transcript levels by RT-PCR in mouse mammary organoids stimulated ex vivo
Protocol: as §1, §2, §3

mouse mammary organoids = experiment: RNA sequencing of mouse mammary organoids stimulated ex vivo with R5020; conditions: R5020 20 nM, 6 h, n = 3
Text: To test this hypothesis, we sought for biological readouts in physiologically relevant models. First, we recurred to using an ex vivo assay for the transcriptional response of the mouse mammary epithelium to hormones. We isolated mammary glands from several inbred adult female mice, treated them mechanically and enzymatically to generate epithelial‐enriched organoids, which remain hormone‐responsive (Ayyanan et al, 2011), and exposed them either to vehicle or to the stable progesterone mimic promegestone (R5020, 20 nM) for 6 h and performed RNA sequencing (Fig 1A). Three independent experiments were performed, and principal component analysis (PCA) grouped the samples according to treatment (Fig 1B). […] Together, these observations confirm that PR signaling is intact in this ex vivo model and that the functionally important factors, Rankl and Wnt4, are robust PR target genes in the mouse mammary epithelium.
(§6) Animal experiments were performed in accordance with protocol approved by the Service de la Consommation et des Affaires vétérinaires of Canton de Vaud (VD 1865.3, VD 1865.4). NOD. Cg‐Prkdc^scid Il2rg^tm1Wjl/SzJ mice (Charles River), BalbC, and C57Bl6 breeders were purchased from Jackson Laboratories. Mammary glands were isolated from 18‐ to 35‐week‐old mice, lymph nodes removed, minced with surgical blades, and digested in DMEM/F12, 1% penicillin/streptomycin B with collagenase A 0.25 mg/ml (Roche). Tissue was concomitantly stimulated with hormones for 1, 2, or 6 h and centrifuged at 652 g for 5 min. Fat was removed, and pellet containing organoids washed with phosphate‐buffered saline (PBS), resuspended 5 min in 3 ml red cell blood lysis buffer and washed twice with PBS.
as §4, §5

Wnt4 [4] = experiment: Wnt4 induction by R5020 or LNG in mouse mammary organoids co-treated with AR antagonists; conditions: antagonist 100 µM, 6 h, C57Bl6-derived organoids
Protocol: (§7) Enzalutamide (100 µM) abrogated Rankl induction by R5020 (P < 0.05) but had no effect on Wnt4 induction (Fig 1H).
as §6, §3

Rankl [5] = experiment: Rankl induction by R5020 or LNG in mouse mammary organoids co-treated with AR antagonists; conditions: antagonist 100 µM, 6 h, C57Bl6-derived organoids
Protocol: as §7, §6, §3

[6] = BalbC females, 6 h of stimulation
[7] = BalbC-derived organoids, 24 h of stimulation

| SMILES | Rankl transcript levels over vehicle-treated control (Rankl [1]; [6]) [fold] | Rankl transcript induction (Rankl [1]; [7]) [fold] | Rankl transcript induction (Rankl [1]; C57Bl/6 mice, 6 h, 20 nM) [fold] | RANKL expression (variant stabilized gene expression values) [2] | WNT4 expression (variant stabilized gene expression values) [2] | Wnt4 transcript levels over vehicle-treated control (Wnt4 [3]; [6]) [fold] | Wnt4 transcript induction (Wnt4 [3]; [7]) [fold] | Wnt4 transcript induction (Wnt4 [3]; C57Bl/6 mice, 6 h, 20 nM) [fold] | Pgr transcripts, down-modulation (RNA sequencing) (mouse mammary organoids) [fold] | Rankl transcripts, induction over control samples (RNA sequencing) (mouse mammary organoids) [fold] | Wnt4 induction (RNA sequencing) (mouse mammary organoids) [fold] | effect of AR antagonist on Wnt4 induction by R5020 (Wnt4 [4]) | effect of AR antagonist on Rankl induction by R5020 (Rankl [5]) |
| --- | --- | --- | --- | --- | --- | --- | --- | --- | --- | --- | --- | --- | --- |
| CCC(=O)[C@@]1(C)CC[C@H]2[C@@H]3CCC4=CC(=O)CCC4=C3CC[C@@]21C [R5020, promegestone] | 22.4 | 83 | 10.9 | increased expression | increased expression | 5.8 | 26 | 4.2 | 0.2 | 10.07 | 3.1 |  |  |
| CC(O)(CS(=O)(=O)c1ccc(F)cc1)C(=O)Nc1ccc(C#N)c(C(F)(F)F)c1 (stereo not shown) [bicalutamide] |  |  |  |  |  |  |  |  |  |  |  | no significant effect | abrogated |

Source: PMC8261488, “Contraceptive progestins with androgenic properties stimulate breast epithelial cell proliferation” (EMBO Molecular Medicine, 2021)
